Test results: patent EP3632916B1, “MORPHINAN COMPOUNDS” (Concert Pharmaceuticals Inc., priority 2007, dated 2008)

Biological target: Human CYP2D6 + P450 Reductase SUPERSOMES (Homo sapiens, UniProt P10635)
Settings: 0.1 µM, 2D6 Supersomes
Experimental: Plates were then spun in the centrifuge for 10 minutes at 3000 rpm.

Human CYP2D6 + P450 Reductase SUPERSOMES, sequence (P10635 whole entry): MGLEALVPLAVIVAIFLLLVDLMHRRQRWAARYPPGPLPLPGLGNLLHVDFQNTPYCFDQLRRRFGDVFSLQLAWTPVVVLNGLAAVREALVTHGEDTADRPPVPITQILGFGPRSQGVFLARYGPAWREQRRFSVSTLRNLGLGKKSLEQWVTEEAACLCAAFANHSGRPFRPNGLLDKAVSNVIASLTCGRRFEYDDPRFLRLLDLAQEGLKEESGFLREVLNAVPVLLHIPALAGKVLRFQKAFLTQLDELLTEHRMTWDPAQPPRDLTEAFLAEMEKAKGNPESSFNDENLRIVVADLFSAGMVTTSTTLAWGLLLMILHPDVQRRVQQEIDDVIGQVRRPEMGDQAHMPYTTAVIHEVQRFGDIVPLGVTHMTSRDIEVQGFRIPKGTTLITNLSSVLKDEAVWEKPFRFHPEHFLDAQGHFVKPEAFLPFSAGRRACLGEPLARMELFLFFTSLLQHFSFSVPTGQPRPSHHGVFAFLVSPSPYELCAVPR

Question: With COc1ccc2c(c1)[C@]13CCCC[C@@H]1[C@H](C2)N(C)CC3 [dextromethorphan, (+)-3-methoxy-17-methyl-(9α,13α,14α)-morphinan] as the compound, how does the “intact compound at the 20 minute time point” value read?
Answer: no intact dextromethorphan could be detected
